From patent publication US9024069B2, “NONOate derivatives and uses thereof” (Ironwood Pharmaceuticals, priority 2012, dated 2015)

Tests used:
rat aortic ring = assay: Thoracic aortic rings assay (vasorelaxation of phenylephrine-contracted rings); assay type: ex vivo tissue; details: rat thoracic aortic rings contracted with 100 ng/mL phenylephrine; cumulative dosing; FIG. 3
Method: Thoracic aortic rings were dissected from anesthetized (isoflurane) male Sprague-Dawley rats weighing 275-299 g. Tissues were immediately transferred to ice-cold Krebs-Henseleit solution, which had been aerated with 95% O2 and 5% CO2 for 30 minutes. Following removal of connective tissue, aortic sections were cut into 4 rings (˜2 mm each) and suspended on 2 L-shaped hooks, with one hook fixed at the bottom of the tissue bath (Schuler Organ Bath, Harvard Apparatus) and the other connected to a force transducer (F30 Force Transducer, Harvard Apparatus). Baths contained Krebs Henseleit solution (10 mL) heated to 37° C. and aerated with 95% O2 and 5% CO2. Rings were brought to an initial tension of 0.3-0.5 g and gradually raised to a resting tension of 1.0 g over 60 minutes. Rings were rinsed with Krebs Henseleit solution (heated to 37° C. and aerated with 95% 02 and 5% CO2) at 15 minute intervals until a stable baseline was obtained. Rings were considered to be stable after a resting tension of 1.0 g was maintained (for approximately 10 minutes) without need for adjustment. Rings were then contracted with 100 ng/mL phenylephrine by adding 100 uL of a 10 μg/mL phenylephrine stock solution. Tissues achieving a stable contraction were then treated in a cumulative, dose dependent manner with test compounds prepared in dimethylsulfoxide (DMSO). In some cases, tissues were rinsed three times over a 5 minute period with Krebs-Heinseleit's solution (heated to 37° C. and aerated with 95% O2 and 5% CO2), allowed to stabilize at baseline, and then used for characterization of other test articles or DMSO effects. All data were collected using the HSE-ACAD software provided by Harvard Apparatus. Percent relaxation effects were calculated in Microsoft Excel using the recorded tension value of 100 ng/mL phenylephrine treatment as 0% inhibition and treatment with 100 μM 3-isobutyl-1-methylxanthine as 100% inhibition. EC50 values were calculated from concentration-response curves generated with GraphPad Prism Software. […]

[1] = Nitric oxide (NOx) level after oral dosing in male rats, Nitrate/Nitrite Colorimetric Assay; assay type: in vivo, rat; details: male SD rats, oral gavage; Fenofibrate 24.8 mg/kg, compounds 6, 7, 8 at 32, 34, 33.8 mg/kg; FIG. 2
Method: 15 male SD (Sprague Dawley) rats were allowed to acclimate for at least 3 days. Fenofibrate, compounds 6, 7, and 8 were administered via oral gavage at molar equivalent doses of 24.8, 32, 34, 33.8 mg/kg, respectively. Animals were fasted overnight and had their food replaced 4 hours after dosing. Compounds were formulated in 300 μL of 100% PEG400. Animals were euthanized under CO2 at the 24 hr time point. Plasma samples were taken for analytical determination of fenofibric acid from compounds in vacutainers containing sodium fluoride. Serum samples were taken for nitric oxide level determination in BD serum collection tubes.
Fenofibric acid was extracted from the plasma using an acetonitrile protein precipitation method. Samples were run on a Waters Aquity TQD LC-MS/MS and analyzed using the MassLynx software. Nitric Oxide levels were measured in serum using a Nitrate/Nitrite Colorimetric Assay Kit from Caymen Chemicals.

normotensive rats = assay: Rat normotensive blood pressure model; assay type: in vivo; details: normotensive conscious SD rats, single oral dose 30 mg/kg, 6 hours monitoring; FIG. 6
Excerpt: 36 male SD rats were allowed to acclimate for at least 3 days. After conditioning the rats were arterially cannulated and assigned to 4 treatment groups, with the goal of achieving n=6/group.
After the acclimation period, the rats were briefly anesthetized with inhaled isoflurane and implanted a small bore femoral artery cannula to permit CV monitoring under conscious unrestrained conditions as conducted in prior studies. 18 rats were cannulated per day on 2 consecutive days and allowed 2 days of post-operative recovery prior to CV testing. 12 rats per day were monitored for each of 2 consecutive daily test sessions.
On the morning of the test sessions, the rats were placed in individual bell jars and their femoral artery cannulas were attached to pressure transducers. CV monitoring consisted of continuously recording mean arterial pressure (MAP) and spot checking heart rate (HR; every 5 to 7 minutes) prior to and for 6 hours after a single oral treatment as in previous studies.
Also on the morning of testing, 4 oral treatments in 500 μl of 100% PEG 400 were formulated. The rats were allowed about 1 hour of equilibration prior to dosing. Once suitably equilibrated, each rat was dosed with an oral vehicle or a drug, delivered by standard gavage. The CV recording was continued over the 6-hour post-treatment interval, occasional small flushes of heparinized saline (˜0.1 mL; 20 units/mL) were administered into their arterial catheters in order to maintain recording fidelity.
At the conclusion of the 6-hour CV monitoring interval, a terminal ˜0.6 mL arterial blood sample was taken and the serum or plasma was processed.

[2] = test system: high fat, high cholesterol diet rats; assay: Rat high fat, high cholesterol diet model (VAP lipid analysis); assay type: in vivo; details: HFHC diet rats, once daily p.o. for seven days, compound 8 at 3, 10, 30 mg/kg, Fenofibrate at 2.2, 7.3, 22 mg/kg; for very low-density lipoprotein (VLDL) cholesterol: FIG. 4; for HDL: FIG. 5
Method: Compounds were tested for effects on cholesterol and lipid profiles in a rat high fat diet model for example as described in Ghibaudi et al. (2002) Obes Res 10:956-63, Ricci and Levin (2003) Am J Physiol Regul Integr Comp Physiol 285:R610-8, and Gao et al. (2002) 936:87-90. Alternatively, animals were fed either a normal diet or a chow supplemented with added fat and/or cholesterol as described in Krause et al (1994) Pharm Res VoI 29, No. 4, Nishina (1993) J of Lipid Res vol 43. and Gajda et al. (2007) Animal Lab News. Based on the specific chows used in these reports, animals were fed a diet consisting of 40% fat, 1% cholesterol, and 0.5% cholic acid (catalog #D01061201, Research Diets, New Brunswick, N.J. 08901).
After at least a week on this diet, animals (6-8/group) are dosed once daily perorally with 500 uL test compounds in PEG 400. Groups are dosed for at least one week before whole blood samples are taken for analysis. Blood serum is analyzed using Vertical Auto Profile (VAP; Atherotech, Inc., Birmingham, Ala.) analysis similar to as described in Kulkarni (2006) Clin Lab Med 26:787-802.
Fenofibrate (Sigma—Cat# F6020-5G, Lot#017K1401) was tested in this assay at 2.2, 7.3 and 22 mg/kg which were equimolar equivalents (for the fenofibric acid moiety) of Compound 8 dosed at 3, 10 and 30 mg/kg. In these experiments animals (n=6 per group) were fed a high fat high cholesterol chow (HFHC; 40% fat, 1% cholesterol, 0.5% cholic acid) diet for one week before test compound administration. Animals received either vehicle only (PEG 400) or test compound (compound 8 at 3, 10 or 30 mg/kg or fenofibrate at 2.2, 7.3 or 22 mg/kg) for seven days before whole blood samples were taken for analysis.

L-NAME hypertensive rats = assay: Rat L-NAME induced hypertension blood pressure model; assay type: in vivo; details: oral gavage, 6 hours monitoring, compound 8 at 10, 30, 60 mg/kg, Fenofibrate 49.6 mg/kg, FIGS. 7 and 8
Method: L-NAME induced hypertension model was carried out at Pharmoptima. Based on the rats' projected average daily water intake, the NO synthase inhibitor L-NAME, L-NG-nitroarginine methyl ester, which induces hypertension, were dissolved in their drinking water so that the rats self-administered tested compounds for 2 weeks prior to study at the targeted daily L-NAME dosage. The rats' L-NAME/water solution was reformulated every other day to insure potency.
After 2 weeks of oral L-NAME preconditioning, the rats were anesthetized with inhaled isoflurane (3-4% in oxygen) and implanted a small bore femoral artery catheter to permit cardiovascular (CV) monitoring under conscious unrestrained conditions. A total of 36 rats (18 rats/day on two consecutive days) were prepared. The catheters were sealed with sodium heparin to maintain patency.
Allow 2 days of post-operative recovery prior to study, allowing full access to food and water (containing dissolved L-NAME) water.
On the study treatment day, […] (n=6×5 treatments) were set up in bell jars under routine non-fasted conditions. Start recording mean arterial pressure (MAP) and heart rate (HR) from this first set of cannulated rats as per previous studies conducted by PharmOptima. Once stable, the rats were dosed by oral gavage. CV data were recorded from the rats over the ensuing 6 hours. 3 arterial blood samples were taken per rat and the harvested plasma samples were frozen.

| Compound | nitric oxide levels in the plasma upon dosing [1] | vasorelaxant properties (rat aortic ring) | blood pressure (normotensive rats) | very low-density lipoprotein (VLDL) cholesterol [2] | HDL [2] | blood pressure (L-NAME hypertensive rats) |
| --- | --- | --- | --- | --- | --- | --- |
| CN(CCCCO)/[N+]([O-])=N/OCOC(=O)C(C)(C)Oc1ccc(C(=O)c2ccc(Cl)cc2)cc1 [Compound 7, (Z)-1-((2-(4-(4-chlorobenzoyl)phenoxy)-2-methylpropanoyloxy)methoxy)-3-(4-hydroxybutyl)-3-methyltriaz-1-ene 2-oxide] | robust increase in nitric oxide levels | – | lowering blood pressure | – | – | – |
| O=[N+]([O-])O[C@H]1CO[C@H]2[C@@H]1OC[C@H]2O[N+](=O)[O-] [ISDN, isosorbide dinitrate, reference compound] | – | active in this assay as a vasorelaxant in the micromolar range | – | – | – | moderate blood pressure lowering effect |

More lines, main results first:

| nitric oxide levels in the plasma upon dosing [1] | Compound | vasorelaxant properties (rat aortic ring) | blood pressure (normotensive rats) | very low-density lipoprotein (VLDL) cholesterol [2] | HDL [2] | blood pressure (L-NAME hypertensive rats) |
| --- | --- | --- | --- | --- | --- | --- |
| robust increase in nitric oxide levels | CN(CCO)/[N+]([O-])=N/OCOC(=O)C(C)(C)Oc1ccc(C(=O)c2ccc(Cl)cc2)cc1 [Compound 6, (Z)-1-((2-(4-(4-chlorobenzoyl)phenoxy)-2-methylpropanoyloxy)methoxy)-3-(2-hydroxyethyl)-3-methyltriaz-1-ene 2-oxide] | potent vasorelaxant properties in the nM range | lowering blood pressure | – | – | – |
| robust increase in nitric oxide levels | CC(C)(Oc1ccc(C(=O)c2ccc(Cl)cc2)cc1)C(=O)OCO/N=[N+](\[O-])N1CCC[C@H]1CO [Compound 8, (S,Z)-2-((2-(4-(4-chlorobenzoyl)phenoxy)-2-methylpropanoyloxy)methoxy)-1-(2-(hydroxymethyl)pyrrolidin-1-yl)diazene oxide] | potent vasorelaxant properties in the nM range | lowering blood pressure | decreases in very low-density lipoprotein (VLDL) cholesterol | dose related increases in HDL | lowered blood pressure in an L-NAME model of hypertension in a dose responsive manner |
| no increase in nitric oxide | CC(C)OC(=O)C(C)(C)Oc1ccc(C(=O)c2ccc(Cl)cc2)cc1 [Fenofibrate, 2-[4-(4-chlorobenzoyl)phenoxy]-2-methyl-propanoic acid, 1-methylethyl ester, reference compound] | – | – | decreases in VLDL | increases in HDL | did not lower blood pressure |
